Measurements published in US9822128B1, “Substituted spirooxindoles” (KING SAUD UNIVERSITY, priority 2017, dated 2017).
Like-named read-outs stand apart in the source and are kept apart here.

What was measured:
Assay type in all cases: cell-based, human
HCT-116 cells = assay: Induction of apoptosis (annexin-V / 7-AAD flow cytometry)
Method: The HCT-116 cells were seeded at 5*10^4 cells/mL density in a 6-well plate. The cells were treated with 2 μM 4d for 48 hrs, and the cells were collected after trypsin enzyme treatment and washed two times with ice-cold 1×PBS. The cells were incubated for 2 hours at 4° C. in PBS, then centrifuged and re-suspended in 1× binding buffer. Then 5 μL PE annexin-V and 5 μL 7-amino-actinomycin D (7-AAD) were added to 100 μL of cell suspension and incubated for 15 min at RT in the dark, and then 400 μL of 1× binding buffer was added to the cell suspension and analyzed within 1 hour by BD Accuri™ C6 Plus flow cytometer. The following controls were used to set up the machine: cells unstained with PE annexin V and 7-AAD, cells stained with PE annexin V only, cells stained with 7-AAD only. The level of apoptotic cells, whether in early (+ve annexin-V and −ve PI) or late stage (+ve Annexin-V and +ve PI), was determined. […] The results are shown in FIG. 5A (untreated cells) and FIG. 5B (treated with just 1 μM of compound 4d for 24 hours).

HCT-116 = assay: Cell cycle analysis (propidium iodide flow cytometry); conditions: HCT-116, 2 μM, 24 hours
Method: The cells (HCT-116) were seeded 5*10^4 cells/mL in a 6-well plate (2 mL/well) and allowed to adhere overnight at 37° C. and 5% CO2. The cells were incubated with or without 2 μM of compound 4d for 24 hours. The cells were washed twice with ice-cold 1×PBS and collected after trypsinzation. The cell pellet was washed two times with ice-cold 1×PBS and fixed with ice-cold 70% ethanol overnight at −20° C. After that, the cells were washed once with ice-cold PBS and the second wash was done with ice-cold PBS-2% FBS. The cell pellet was re-suspended in 500 μL Propidium Iodide (PI)/RNase (BD Biosciences, BDB550825) staining solution for 15 min at room temperature. The samples were incubated for 15 min in the dark and analyzed within 1 hour by BD Accuri™ C6 Plus flow cytometer. […] The arrest of the cell cycle in subG1 indicates the induction of apoptosis.

PC-3 = assay: MTT cytotoxicity assay, prostate carcinoma cells; conditions: for IC50: Homo sapiens, PC-3, MTT, 48 hrs incubation
Method: The cytotoxic activity of the compounds was tested against different mammalian cancer cells, prostate carcinoma cells (PC-3), hepatocellular carcinoma (HepG2) and colon cancer cells (HCT-116) and against African green monkey kidney cell line (Vero-B). The cell lines were obtained from American Type Culture Collection (ATCC). The cells were cultivated at 37° C. and 10% CO2 in DMEM (Lonza, 12-604F) medium supplemented with 10% fetal bovine serum (FBS, Lonza, Cat. No. 14-801E), 100 IU/ml penicillin and 100 μg/ml streptomycin (Lonza, 17-602E). Cisplatin (cis-diamineplatinum (II) dichloride) was used as a positive control and was obtained from Sigma then dissolved in 0.9% saline then stored as 8 mM stock solution at −20° C. The synthesized compounds were solubilized in DMSO and stored at −20° C. 0.5% crystal violet was prepared in Methanol and was used to stain the viable cells (Feoktistova, Geserick et al. 2016). Crystal violet binds to proteins and DNA in the adherent and viable cells so the stain is an indicator for the viability of the treated cells. The viability of the cells were quantified by using MTT reagent (3-(4,5-dimethylthiazol-2-yl)-2,5-diphenyl tetrazolium bromide), which measure the activity of mitochondrial dehydrogenase in the viable cells (Slater, Sawyer et al. 1963, Mosmann 1983).
Cytotoxicity was further assayed as follows. The cells were seeded in 96-well plate as 5*10^4 cells/mL (100 μL/well). A serial dilutions of tested compounds or cisplatin (100, 30, 10, 3.3, 1.1 or 0.37 μM) was added after overnight incubation of the cells at 37° C. and 5% CO2. DMSO was used as a control (0.1%). The cells were incubated for 48 hrs. After that, 15 μl of MTT (5 mg/mL PBS) was added to each well and incubated for another 4 hours. The formazan crystals were solubilized by 100 μL acidified SDS solution (10% SDS/0.01 M HCl). The absorbance was measured after 14 hours of incubation at 37° C. and 5% CO2 at 570 nm by Biotech plate reader. Each experiment was repeated three times and standard deviation was calculated (±). IC50% was calculated as the concentration that cause 50% inhibition for cell growth. The growth of the cells were monitored and the images were acquired by Gx microscopes (GXMGXD202 Inverted Microscope) (10× Eyepiece) after staining with crystal violet.

With O=C(/C=C/c1ccc(Cl)cc1Cl)[C@H]1[C@H](c2ccc(Cl)cc2Cl)[C@H]2CSCN2[C@]12C(=O)Nc1ccccc12 [Compound 4d, (3R,6′S,7′R,7a′S)-7′-(2,4-dichlorophenyl)-6′-((E)-3-(2,4-dichlorophenyl)acryloyl)-1′,6′,7′,7a′-tetrahydro-3′H-spiro[indoline-3,5′-pyrrolo[1,2-c]thiazol]-2-one] the induction of apoptosis (HCT-116 cells; HCT-116, 1 μM, 24 hours) was “could induce the apoptosis”, the apoptotic cells (HCT-116 cells; HCT-116, 2 μM, 48 hours) was “greatly increased the apoptotic cells” and the “cells arrested in G2/M” value (HCT-116) was “around 34.5%”. The “cells arrested in subG1” value (HCT-116) was roughly 15.5%, the IC50 (PC-3; read-out: PC-3 (IC50% μM)) was 1.8 ± 0.3 µM and the IC50 (PC-3; read-out: PC-3 (IC50% μg/ml)) was 1.1 µg/mL. It also gave an SI (PC-3; Selectivity Index from IC50 normal (VERO-B) and IC50 cancer (PC-3)) of 2.778.
